The values that follow are results of earlier work, collected in patent publication US9181529B2, “Titration of differentiation medium components” (Cellular Dynamics International, Inc., priority 2010, dated 2015).

pIC50: −log10 of the molar value.

Data set [1] concerns pluripotent stem cell-derived cardiomyocytes.
The next data set concerns ROCK2. The settings on record: ATP-competitive, read-out: IC50 ROCK1/ROCK2.

`CC(C)NCC(O)c1ccc(O)c(O)c1` (stereo not shown) [isoprenaline]: in data set [1], the chronotropic effect result is “positive chronotropic effect”.

For `COc1ccc([C@@H]2Sc3ccccc3N(CCN(C)C)C(=O)[C@@H]2OC(C)=O)cc1` [diltiazem], the contractile activity entry in data set [1] is reported as “inhibits contractile activity in a dose-dependent manner”.

On to `CNC[C@H](O)c1cccc(O)c1` [phenylephrine], for which the chronotropic effect result in data set [1] is “positive chronotropic effect”.

In the case of `C[C@@H](N)[C@H]1CC[C@H](C(=O)Nc2ccncc2)CC1` [Y-27632], in the data set on ROCK2, the pIC50 was […].
